Structures can show the parent of a compound that is named as a salt.
Tests used:
[1] = test system: worker antennae of Vespula pensylvanica, Dolichovespula maculata, Polistes dominulus, and P. aurifer; experiment: GC-EAD/MS analysis of SPME headspace samples of essential oils: antennal responses; conditions: for antennal (EAD) response to component of geranium oil / antennal (EAD) response to component of pennyroyal oil / antennal (EAD) response to component of spearmint oil: V. pensylvanica, D. maculata, P. dominulus, or P. aurifer antennae; for antennal (EAD) response to component of lemongrass oil: antennae of V. pensylvanica, D. maculata, and Polistes dominulus, FIG. 2; for antennal (EAD) response to component of rosemary oil: V. pensylvanica and D. maculata antennae, FIG. 3
Method: Headspace volatiles from greater than 10 types of essential oils (1 ml each in a closed 20 ml glass vial) were sampled via Solid-Phase Micro-Extraction (SPME) (CAR/PDMS, 85 μm, Supelco, Bellefonte, Pa.) for 20-30 sec before GC-EAD and GC-MS analyses.
Paper wasp [European paper wasp (Polistes dominulus) or golden paper wasp (P. aurifer)] and yellowjacket [Western yellowjacket (Vespula pensylvanica) or Bald-faced hornet (Dolichovespula maculata)] workers for electrophysiological study were collected from their nests and kept alive at 4° C. before testing.
SPME samples of the various essential oils were injected splitless into a Varian CP-3800 GC equipped with a polar column (HP-INNOWAX; 30 m×0.53 mm×1.0 μm film thickness; Agilent Technologies, Wilmington, Del., USA) and a 1:1 effluent splitter that allowed simultaneous flame ionization detection (FID) and electroantennographic detection (EAD) of either a yellowjacket or paper wasp worker antenna to the separated volatile compounds. Helium was used as the carrier gas, and the injector and detector temperatures were 250° C. and 300° C., respectively. Column temperature was 50° C. for 1 min, rising to 240° C. at 10° C./min, and then held for 10 min. The outlet for the EAD was held in a humidified air stream flowing at 0.5 m/sec over the antennal preparation. EAD recordings were made using silver wire-glass capillary electrodes filled with Beadle-Ephrussi Ringer on freshly cut antennae. The antennal signals were stored and analyzed on a PC equipped with a serial IDAC interface box and the program EAD ver. 2.5 (Syntech, Hilversum, The Netherlands).
Compounds were identified by comparison of retention times with those of authentic standards and with mass spectra of standards.

[2] = test system: Yellowjackets (mainly Vespula pensylvanica (ca. 90%), plus V. vulgaris, V. germanica, and Dolichovespula maculata); experiment: Field trapping, Rescue W•H•Y traps baited with attractant AA/2MB: captures of yellowjackets; assay type: in vivo; conditions: for Mean/trap/visit ± SE Yellowjackets: attractant AA/2MB alone (row AA/2MB) or plus chemical, N 9; for reduction of trap catches of yellowjackets: Experiment 9
Method: (§1) Eleven field trapping experiments were carried out from late August to mid-October 2009 in residential and woody areas around Spokane, Wash., USA, mostly using the trap known by the designation Rescue® W•H•Y (except on one occasion that Rescue® Reusable Yellowjacket Traps were used for a natural food attractant; see below for details). The commercial W•H•Y trap has a top chamber and a bottom chamber and is described in U.S. Patent Application Publication No. 2009/0151228. The top chamber is baited with two attractants—one of which is a solid contained in a vial (2-methyl-1-butanol), and the other is a liquid mixed with water (acetic acid). The bottom chamber is baited with a liquid attractant (heptyl butyrate) poured onto a cotton pad. Separation of the two types of attractants (otherwise antagonistic to each other when released from the same chamber) in two chambers creates two focal attraction sources from one trap for different species of wasps, hornets, and yellowjackets. […] In a special occasion, the commercial Rescue® Reusable Yellowjacket Traps were each baited with 10 g of chopped bacon (loaded into a cartridge) as a natural protein food attractant. Traps were hung 1.5-2.0 m above the ground on either fences or tree branches ca. 5 m apart between each trap and at least 15 m between sets. For each trapping experiment, three sets of traps (i.e., three physical replicates of each treatment) were deployed with their initial trap positions within each set being randomized. To minimize positional effects and obtain more replications, wasp collections and trap re-randomization were carried out when 5-10 wasps were caught in the best traps. Each replicate lasted several days depending on wasp flight activity. Captured wasps were removed from the traps and kept in the zip-bags before returning to the laboratory for recording of the species, gender status, and catch. Repellent candidates (individuals or mixtures) were released from polyethylene bags (3×5 cm; with a fabric felt) with various thicknesses from 2-12 mil (see release rates listed in tables); they were employed inside the same trap chamber as the attractant.
(§2) Experiment 1 tested five individual essential oils (pennyroyal, lemongrass, peppermint, clove, and citronella) and two known mosquito repellents (i.e., major components of catnip oil), E/Z-nepetalactone and Z/E-nepetalactone plus a blank control against a mixture of attractant [acetic acid (AA) and 2-methyl-1-butanol (2 MB)] using the W•H•Y traps (both attractant and repellent candidates were released from the top chamber) from for eight consecutive days from August to early September. Experiment 2 tested nine individual essential oils (ylang ylang, vetiver, myrrh, patchouli, geranium, eucalyptus, camphor, spearmint, and wintergreen) plus a blank control against a mixture of attractant (AA+2 MB) using the W•H•Y traps (both attractant and repellent candidates were released from the top chamber) for eight consecutive days from late August to early September. Experiment 3 tested seven individual essential oils (Roman chamomile, sage, fennel seed, rosemary, thyme, anise, and lavender) plus a blank control against a mixture of attractant (AA+2 MB) using the W•H•Y traps (both attractant and repellent candidates were released from the top chamber) for eight consecutive days from late August to early September. Experiment 4 tested two essential oil mixtures (3EO-mix: clove, geranium, and lemongrass in ca. 1:1:1 ratio; and 4EO-mix: clove, geranium, lemongrass, and rosemary in ca. 1:1:1:1 ratio) plus a blank control against a mixture of attractant (AA+2 MB) using the W•H•Y traps (both attractant and repellent candidates were released from the top chamber) for 13 consecutive days in September; the essential oil mixtures alone without attractant were tested in the same experiment.

[3] = test system: Paper wasps (mainly Polistes dominulus, plus a few of P. aurifer); experiment: Field trapping, Rescue W•H•Y traps baited with attractant AA/2MB: captures of paper wasps; assay type: in vivo; conditions: for Mean/trap/visit ± SE Paper wasps: attractant AA/2MB alone (row AA/2MB) or plus chemical, N 9; for decrease of trap catches of paper wasps: Experiment 9
Method: as §1, §2

[4] = test system: vespid wasps (paper wasps, hornets and yellowjackets); experiment: Field trapping experiments, repellency stated for vespid wasps as a whole (yellowjackets and paper wasps; summaries); assay type: in vivo, Vespula pensylvanica; Polistes dominulus; conditions: Experiment 9; AA/2 MB
Method: as §1, §2

[5] = Table 8, Experiment 9, 13 days in September
[6] = Table 7, Experiment 8, 13 days in September
[7] = Table 9, Experiment 10, 18 days end of September through mid-October
[8] = V. pensylvanica and P. dominulus worker antennae

C=C1CC[C@@H]2[C@H]1[C@H]1[C@H](C(C)C)CC[C@]12C [β-bourberene]
antennal (EAD) response to component of geranium oil [1]: significant and consistent EAD-responses

CC1=CC(=O)[C@H]2C[C@@H]1C2(C)C [(−)-Verbenone, (−)-verbenone]
Mean/trap/visit ± SE Yellowjackets [2, 5]: 18.7 ± 5.9 b wasps/trap/visit
Mean/trap/visit ± SE Paper wasps [3, 5]: 2.9 ± 0.9 ab wasps/trap/visit
activity at doses tested [4]: inactive

CC(C)=CCCC(C)CCOC=O (stereo not shown) [citronyl formate, citronellyl formate]
antennal (EAD) response to component of geranium oil [1]: significant and consistent EAD-responses

E/Z-citral
reduction of trap catches of yellowjackets ([2]; AA/2 MB): more than 70%
Mean/trap/visit ± SE Yellowjackets [2, 5]: 11.6 ± 5.8 a wasps/trap/visit
decrease of trap catches of paper wasps ([3]; AA/2 MB): 88%
Mean/trap/visit ± SE Paper wasps [3, 5]: 0.6 ± 0.3 a wasps/trap/visit

CC(C)[C@@H]1CC[C@@H](C)CC1=O [Menthone, menthone]
yellowjackets caught, attractant plus compound versus attractant alone ([2]; Experiment 8, AA/2 MB): four times less
Mean/trap/visit ± SE Yellowjackets [2, 6]: 7.7 ± 3.4 a wasps/trap/visit
trap catch reduction to the paper wasps ([3]; Experiment 8, AA/2 MB, not statistically different from the attractant alone): > 50%
Mean/trap/visit ± SE Paper wasps [3, 6]: 2.1 ± 1.3 a wasps/trap/visit
antennal (EAD) response to component of geranium oil [1]: significant and consistent EAD-responses
antennal (EAD) response to component of pennyroyal oil [1]: significant and consistent EAD-responses

CC(=O)CCC=C(C)C [6-Methyl-5-hepten-2-one, 6-methyl-5-hepten-2-one]
repellency at the doses tested ([2]; Experiment 8, AA/2 MB): not significantly repellent
Mean/trap/visit ± SE Yellowjackets [2, 6]: 21.9 ± 3.8 b wasps/trap/visit
Mean/trap/visit ± SE Paper wasps [3, 6]: 4.8 ± 2.3 a wasps/trap/visit
antennal (EAD) response to component of lemongrass oil [1]: strongly responded

CCCCCC(O)CC (stereo not shown) [3-Octanol, 3-octanol]
Mean/trap/visit ± SE Yellowjackets [2, 7]: 6.9 ± 2.4 ab wasps/trap/visit
Mean/trap/visit ± SE Paper wasps [3, 7]: 1.1 ± 0.8 a wasps/trap/visit
antennal (EAD) response to component of pennyroyal oil [1]: significant and consistent EAD-responses
antennal (EAD) response to component of spearmint oil [1]: significant and consistent EAD-responses

α/β-thujone
Mean/trap/visit ± SE Yellowjackets [2, 7]: 4.9 ± 1.6 ab wasps/trap/visit
Mean/trap/visit ± SE Paper wasps [3, 7]: 0.2 ± 0.1 a wasps/trap/visit
antennal (EAD) response to component of sage oil [1, 8]: strong and repeatable antennal responses

CCCCCC(=O)CCC [4-nonanone]
antennal (EAD) response to component of lemongrass oil [1]: strongly responded

CC(C)=C1CC[C@@H](C)CC1=O [Pulegone, pulegone]
Mean/trap/visit ± SE Yellowjackets [2, 7]: 6.4 ± 1.8 abc wasps/trap/visit
Mean/trap/visit ± SE Paper wasps [3, 7]: 0.2 ± 0.1 a wasps/trap/visit
antennal (EAD) response to component of pennyroyal oil [1]: significant and consistent EAD-responses

CC(C)=CCCC(C)CC=O (stereo not shown) [Citronellal, citronellal]
Mean/trap/visit ± SE Yellowjackets [2, 7]: 11.4 ± 5.2 bc wasps/trap/visit
Mean/trap/visit ± SE Paper wasps [3, 7]: 0.4 ± 0.2 a wasps/trap/visit
antennal (EAD) response to component of citronella oil [1, 8]: strong and repeatable antennal responses

CC1=CCC2CC1C2(C)C (stereo not drawn) [α-pinene]
antennal (EAD) response to component of rosemary oil [1]: significant EAD-responses
antennal (EAD) response to component of sage oil [1, 8]: strong and repeatable antennal responses

C=CC(C)(O)CCC=C(C)C (stereo not shown) [Linalool, linalool]
repellency at the doses tested ([2]; Experiment 8, AA/2 MB): not significantly repellent
Mean/trap/visit ± SE Yellowjackets [2, 6]: 23.9 ± 4.0 b wasps/trap/visit
Mean/trap/visit ± SE Paper wasps [3, 6]: 5.2 ± 3.5 a wasps/trap/visit
antennal (EAD) response to component of lavender oil [1, 8]: strong and repeatable antennal responses
antennal (EAD) response to component of ylang ylang oil [1, 8]: strong and repeatable antennal responses
antennal (EAD) response to component of lemongrass oil [1]: strongly responded

COC(=O)c1ccccc1O [Methyl salicylate, methyl salicylate]
Mean/trap/visit ± SE Yellowjackets [2, 7]: 4.7 ± 2.0 ab wasps/trap/visit
Mean/trap/visit ± SE Paper wasps [3, 7]: 0.9 ± 0.5 a wasps/trap/visit
antennal (EAD) response to component of wintergreen oil ([1]; V. pensylvanica antennae, FIG. 12): strong antennal response

CC(C)=CCC/C(C)=C\C=O [Z-citral]
antennal (EAD) response to component of lemongrass oil [1]: strongly responded

CC(C)=CCC/C(C)=C/COC=O [Geranyl formate, geranyl formate]
repellency at the doses tested ([2]; Experiment 8, AA/2 MB): not significantly repellent
Mean/trap/visit ± SE Yellowjackets [2, 6]: 28.2 ± 7.0 b wasps/trap/visit
Mean/trap/visit ± SE Paper wasps [3, 6]: 5.8 ± 2.7 a wasps/trap/visit
antennal (EAD) response to component of geranium oil [1]: significant and consistent EAD-responses

cis/trans-rose oxides
antennal (EAD) response to component of geranium oil [1]: significant and consistent EAD-responses

C=C(C)[C@H]1CC=C(C)C(=O)C1 [d-Carvone, d-carvone]
Mean/trap/visit ± SE Yellowjackets [2, 7]: 4.9 ± 2.2 ab wasps/trap/visit
Mean/trap/visit ± SE Paper wasps [3, 7]: 0.9 ± 0.5 a wasps/trap/visit
antennal (EAD) response to component of spearmint oil [1]: significant and consistent EAD-responses

CC(C)=CCC/C(C)=C/C=O [E-citral]
antennal (EAD) response to component of lemongrass oil [1]: strongly responded

CC12CCC(CC1)C(C)(C)O2 [1,8-Cineole, 1,8-cineole]
repellency at the doses tested ([2]; Experiment 8, AA/2 MB): not significantly repellent
Mean/trap/visit ± SE Yellowjackets [2, 6]: 18.2 ± 4.1 b wasps/trap/visit
Mean/trap/visit ± SE Paper wasps [3, 6]: 4.6 ± 1.8 a wasps/trap/visit
antennal (EAD) response to component of rosemary oil [1]: significant EAD-responses
antennal (EAD) response to component of lavender oil [1, 8]: strong and repeatable antennal responses
antennal (EAD) response to component of sage oil [1, 8]: strong and repeatable antennal responses
antennal (EAD) response to component of spearmint oil [1]: significant and consistent EAD-responses

Cc1ccc(C(C)C)cc1 [p-cymene]
antennal (EAD) response to component of sage oil [1, 8]: strong and repeatable antennal responses

CC(=O)OCc1ccccc1 [Benzyl acetate, benzyl acetate]
Mean/trap/visit ± SE Yellowjackets [2, 7]: 8.2 ± 3.0 abc wasps/trap/visit
Mean/trap/visit ± SE Paper wasps [3, 7]: 0.9 ± 0.5 a wasps/trap/visit
antennal (EAD) response to component of ylang ylang oil [1, 8]: strong and repeatable antennal responses

COC(=O)c1ccccc1 [Methyl benzoate, methyl benzoate]
Mean/trap/visit ± SE Yellowjackets [2, 7]: 5.2 ± 2.2 ab wasps/trap/visit
Mean/trap/visit ± SE Paper wasps [3, 7]: 1.9 ± 0.8 ab wasps/trap/visit
antennal (EAD) response to component of ylang ylang oil [1, 8]: strong and repeatable antennal responses

C=CCc1ccc(O)c(OC)c1 [Eugenol, eugenol]
reduction of trap catches of yellowjackets ([2]; AA/2 MB): > 95%
Mean/trap/visit ± SE Yellowjackets [2, 5]: 1.7 ± 0.7 a wasps/trap/visit
decrease of trap catches of paper wasps ([3]; AA/2 MB): 58%
Mean/trap/visit ± SE Paper wasps [3, 5]: 2.0 ± 0.5 ab wasps/trap/visit
antennal (EAD) response to component of clove oil [1, 8]: strong and repeatable antennal responses
